Experimental data: patent US12337022B2, “Use of a vegetable extract from salvia haenkei as an active agent in the treatment of heart diseases” (Altergon S.A., priority 2021, dated 2025)

Key:
Sprague-Dawley rats = assay: Echocardiography in rat model of DOXO-induced cardiotoxicity; type: in vivo; conditions: DOXO-treated animals not receiving SH
Method: For in vivo experiments, considering that a water intake for adult rat is about 30-40 ml/day, 1.25 gr of SH extract was diluted in 300 ml of water, achieving a daily dose of […] (extract/body weight).
Adult female Sprague-Dawley rats (250-300 g body weight) were injected with six intraperitoneal doses of DOXO (Sigma) delivered at regular intervals from Day 1 to Day 11 (cumulative dose=15 mg/kg). During the treatment, rats were given ad libitum access to water containing SH. Rats received a daily dose of about 0.5 mg/Kg of SH.
Echocardiographic assessment, animals were anaesthetized at the indicated time points with 2.0-2.5% isoflurane. Transthoracic echocardiography was performed using the Vevo 2100 high-resolution imaging system (VisualSonic) equipped with a 13-24-MHz linear transducer. Analyses were performed on Days 0 (baseline), 12, 19. Two-dimensional short-axis M-mode echocardiography was performed. All M-mode tracing measurements were averaged from a minimum of three cardiac cycles. Investigators were blinded to the animals' identity.

Method for beating human iPS-CM: Traces were recorded every 24 hours for 7 consecutive days from the beginning of the DOXO treatment (day 0-3 h).

SMILES: COc1cccc2c1C(=O)c1c(O)c3c(c(O)c1C2=O)C[C@@](O)(C(=O)CO)C[C@@H]3O[C@H]1C[C@H](N)[C@H](O)[C@H](C)O1 [DOXO, Doxorubicin]
- QT interval (beating human iPS-CM): induces prolongation on QT interval
- left end systolic volume (LVESV) (Sprague-Dawley rats): increased over time
- left ventricular ejection fraction (LVEF) (Sprague-Dawley rats): significant decrease
